System: 186277-243-T-J2-PDC complex spheroids, viability
Assay: Anticancer human tumor 186277-243-T-J2-PDC patient-derived colon adenocarcinoma cell line growth inhibition [RAS]
Details: for viability, T/C: stronger effect = lower value
Outline: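 Agents were tested in combination matrices in half-log decrements from a top concentration at or near clinical Cmax (10 microM if undetermined). Targets were multi-cell spheroids of tumour lines plus HUVEC and MSC stromal cells.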

[1] = curve of first compound, second compound 0.000949 µM
[2] = curve of first compound, second compound 0.003 µM
[3] = curve of first compound, second compound 0.00949 µM
[4] = curve of first compound, second compound 0.03 µM
[5] = curve of first compound, second compound 0.0949 µM
[6] = curve of first compound, second compound 0.3 µM
[7] = second compound 0.000949 µM, first compound 0.0316 µM
[8] = second compound 0.000949 µM, first compound 0.1 µM
[9] = second compound 0.000949 µM, first compound 0.316 µM
[10] = second compound 0.000949 µM, first compound 1 µM
[11] = second compound 0.003 µM, first compound 0.0316 µM
[12] = second compound 0.003 µM, first compound 0.1 µM
[13] = second compound 0.003 µM, first compound 0.316 µM
[14] = second compound 0.003 µM, first compound 1 µM
[15] = second compound 0.00949 µM, first compound 0.0316 µM
[16] = second compound 0.00949 µM, first compound 0.1 µM
[17] = second compound 0.00949 µM, first compound 0.316 µM
[18] = second compound 0.00949 µM, first compound 1 µM
[19] = second compound 0.03 µM, first compound 0.0316 µM
[20] = second compound 0.03 µM, first compound 0.1 µM
[21] = second compound 0.03 µM, first compound 0.316 µM
[22] = second compound 0.03 µM, first compound 1 µM
[23] = second compound 0.0949 µM, first compound 0.0316 µM
[24] = second compound 0.0949 µM, first compound 0.1 µM
[25] = second compound 0.0949 µM, first compound 0.316 µM
[26] = second compound 0.0949 µM, first compound 1 µM
[27] = second compound 0.3 µM, first compound 0.0316 µM
[28] = second compound 0.3 µM, first compound 0.1 µM
[29] = second compound 0.3 µM, first compound 0.316 µM
[30] = second compound 0.3 µM, first compound 1 µM
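Note: spheroids exposed to compounds for 7 days before viability read.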

`CC(=O)OC12COC1CC(O)C1(C)C(=O)C(O)C3=C(C)C(OC(=O)C(O)C(NC(=O)OC(C)(C)C)c4ccccc4)CC(O)(C(OC(=O)c4ccccc4)C21)C3(C)C` (stereo unspecified) + CCn1c(-c2cccnc2C(C)OC)c2c3cc(ccc31)N1CCOC(CC(NC(=O)C(C(C)C)N(C)C(=O)C3(F)CCN(C(=O)C#CC(C)(C)N(C)C)CC3)C(=O)N3CCCC(N3)C(=O)OCC(C)(C)C2)C1 gave an IC50 [1] of less than 31.6 nM, an IC50 [2] of less than 31.6 nM and an IC50 [3] of less than 31.6 nM. It also gave an IC50 [4] of less than 31.6 nM, an IC50 [5] of less than 31.6 nM and an IC50 [6] of less than 31.6 nM. For the same compound, the viability, T/C [7] was 6.09%, the viability, T/C [8] was 4.29% and the viability, T/C [9] was 4.45%. For the same compound, the viability, T/C [10] was 5%, the viability, T/C (second compound 0.000949 µM, first compound 3.16 µM) was 4.34% and the viability, T/C (second compound 0.000949 µM, first compound 10 µM) was 4.13%. For the same compound, the viability, T/C [11] was 6%, the viability, T/C [12] was 5.13% and the viability, T/C [13] was 5.03%. For the same compound, the viability, T/C [14] was 4.41%, the viability, T/C (second compound 0.003 µM, first compound 3.16 µM) was 4.14% and the viability, T/C (second compound 0.003 µM, first compound 10 µM) was 4.35%. For the same compound, the viability, T/C [15] was 6.17%, the viability, T/C [16] was 4.96% and the viability, T/C [17] was 4.57%. The viability, T/C [18] was 4.98%, the viability, T/C (second compound 0.00949 µM, first compound 3.16 µM) was 4.48% and the viability, T/C (second compound 0.00949 µM, first compound 10 µM) was 3.96%. The viability, T/C [19] was 5.87%, the viability, T/C [20] was 4.93% and the viability, T/C [21] was 4.72%. It also gave a viability, T/C [22] of 3.83%, a viability, T/C (second compound 0.03 µM, first compound 3.16 µM) of 4.63% and a viability, T/C (second compound 0.03 µM, first compound 10 µM) of 4.2%. It also gave a viability, T/C [23] of 5.78%, a viability, T/C [24] of 4.53% and a viability, T/C [25] of 4.78%. The viability, T/C [26] was 4.23%, the viability, T/C (second compound 0.0949 µM, first compound 3.16 µM) was 4.24% and the viability, T/C (second compound 0.0949 µM, first compound 10 µM) was 4.22%. For the same compound, the viability, T/C [27] was 4.84%, the viability, T/C [28] was 3.52% and the viability, T/C [29] was 3.6%. It also gave a viability, T/C [30] of 3.55%, a viability, T/C (second compound 0.3 µM, first compound 3.16 µM) of 3.32% and a viability, T/C (second compound 0.3 µM, first compound 10 µM) of 3.72%.

With `CC(=O)OC12COC1CC(O)C1(C)C(=O)C(O)C3=C(C)C(OC(=O)C(O)C(NC(=O)OC(C)(C)C)c4ccccc4)CC(O)(C(OC(=O)c4ccccc4)C21)C3(C)C` (stereo unspecified) the viability, T/C (compound 0.0316 µM) was 8.57% [middle of 4 runs], the viability, T/C (compound 0.1 µM) was 7.52% [middle of 4 runs] and the viability, T/C (compound 0.316 µM) was 7.03% [middle of 4 runs]. For the same compound, the viability, T/C (compound 1 µM) was 6.22% [middle of 4 runs], the viability, T/C (compound 3.16 µM) was 5.95% [middle of 4 runs] and the viability, T/C (compound 10 µM) was 6.14% [middle of 4 runs]. The IC50 (curve of compound) was less than 31.6 nM.

For `NC1c2ccccc2OC12CCN(c1cnc3c(N4CCCc5ncccc54)n[nH]c3n1)CC2` (stereo unspecified), the viability, T/C (compound 0.316 µM) was 99.6% [middle of 4 runs], the viability, T/C (compound 10 µM) was 73.3% [middle of 4 runs] and the IC50 (curve of compound) was greater than 10000 nM.

Compound `C=CC(=O)N1CCN(c2nc(OCC3CCCN3C)nc3c(F)c(-c4nc(N)cc(C)c4C(F)(F)F)c(Cl)cc23)C(C)C1` (stereo unspecified) + CCn1c(-c2cc(N3CCN(C)CC3)cnc2C(C)OC)c2c3cc(ccc31)-c1csc(n1)CC(NC(=O)C1CC1C)C(=O)N1CCCC(N1)C(=O)OCC(C)(C)C2 has an IC50 [1] greater than 1000 nM, an IC50 [2] greater than 1000 nM and an IC50 [3] of less than 3.16 nM. The IC50 [4] was less than 3.16 nM, the IC50 [5] was less than 3.16 nM and the IC50 [6] was less than 3.16 nM. The viability, T/C (second compound 0.000949 µM, first compound 0.00316 µM) was 100%, the viability, T/C (second compound 0.000949 µM, first compound 0.01 µM) was 95.3% and the viability, T/C [7] was 97.8%. For the same compound, the viability, T/C [8] was 82%, the viability, T/C [9] was 96% and the viability, T/C [10] was 95.7%. The viability, T/C (second compound 0.003 µM, first compound 0.00316 µM) was 93.8%, the viability, T/C (second compound 0.003 µM, first compound 0.01 µM) was 79% and the viability, T/C [11] was 74.8%. It also gave a viability, T/C [12] of 100%, a viability, T/C [13] of 90.7% and a viability, T/C [14] of 91.3%. It also gave a viability, T/C (second compound 0.00949 µM, first compound 0.00316 µM) of 50.9%, a viability, T/C (second compound 0.00949 µM, first compound 0.01 µM) of 43.2% and a viability, T/C [15] of 45.5%. It also gave a viability, T/C [16] of 47%, a viability, T/C [17] of 49.9% and a viability, T/C [18] of 42.9%. For the same compound, the viability, T/C (second compound 0.03 µM, first compound 0.00316 µM) was 15.2%, the viability, T/C (second compound 0.03 µM, first compound 0.01 µM) was 15.7% and the viability, T/C [19] was 14%. For the same compound, the viability, T/C [20] was 15.6%, the viability, T/C [21] was 16.7% and the viability, T/C [22] was 13.9%. For the same compound, the viability, T/C (second compound 0.0949 µM, first compound 0.00316 µM) was 7.43%, the viability, T/C (second compound 0.0949 µM, first compound 0.01 µM) was 6.42% and the viability, T/C [23] was 6.99%. It also gave a viability, T/C [24] of 6.92%, a viability, T/C [25] of 7.72% and a viability, T/C [26] of 6.75%. The viability, T/C (second compound 0.3 µM, first compound 0.00316 µM) was 6.06%, the viability, T/C (second compound 0.3 µM, first compound 0.01 µM) was 5.29% and the viability, T/C [27] was 6.03%. It also gave a viability, T/C [28] of 5.77%, a viability, T/C [29] of 6.02% and a viability, T/C [30] of 5.32%.

In the case of `O=C(c1ccc(F)c(F)c1Nc1ccc(I)cc1F)N1CC(O)([C@@H]2CCCCN2)C1` + C=CC(=O)N1CCN(c2nc(OCC3CCCN3C)nc3c(F)c(-c4nc(N)cc(C)c4C(F)(F)F)c(Cl)cc23)C(C)C1, the IC50 (curve of first compound, second compound 0.00316 µM) is reported as 52.1 nM, the IC50 (curve of first compound, second compound 0.01 µM) is reported as 63.7 nM and the IC50 (curve of first compound, second compound 0.0316 µM) is reported as 66.9 nM. It also gave an IC50 (curve of first compound, second compound 0.1 µM) of 74.5 nM, an IC50 (curve of first compound, second compound 0.316 µM) of 73.4 nM and an IC50 (curve of first compound, second compound 1 µM) of 86.1 nM. It also gave a viability, T/C (second compound 0.00316 µM, first compound 0.00316 µM) of 104%, a viability, T/C (second compound 0.00316 µM, first compound 0.01 µM) of 99.3% and a viability, T/C (second compound 0.00316 µM, first compound 0.0316 µM) of 59.9%. It also gave a viability, T/C (second compound 0.00316 µM, first compound 0.1 µM) of 34%, a viability, T/C (second compound 0.00316 µM, first compound 0.316 µM) of 12% and a viability, T/C (second compound 0.00316 µM, first compound 1 µM) of 5.96%. For the same compound, the viability, T/C (second compound 0.01 µM, first compound 0.00316 µM) was 93.8%, the viability, T/C (second compound 0.01 µM, first compound 0.01 µM) was 110% and the viability, T/C (second compound 0.01 µM, first compound 0.0316 µM) was 79.2%. For the same compound, the viability, T/C (second compound 0.01 µM, first compound 0.1 µM) was 30.4%, the viability, T/C (second compound 0.01 µM, first compound 0.316 µM) was 11.9% and the viability, T/C (second compound 0.01 µM, first compound 1 µM) was 5.44%. It also gave a viability, T/C (second compound 0.0316 µM, first compound 0.00316 µM) of 99.3%, a viability, T/C (second compound 0.0316 µM, first compound 0.01 µM) of 87.8% and a viability, T/C (second compound 0.0316 µM, first compound 0.0316 µM) of 78.1%. The viability, T/C (second compound 0.0316 µM, first compound 0.1 µM) was 35%, the viability, T/C (second compound 0.0316 µM, first compound 0.316 µM) was 12.1% and the viability, T/C (second compound 0.0316 µM, first compound 1 µM) was 5.54%. For the same compound, the viability, T/C (second compound 0.1 µM, first compound 0.00316 µM) was 75.7%, the viability, T/C (second compound 0.1 µM, first compound 0.01 µM) was 98% and the viability, T/C (second compound 0.1 µM, first compound 0.0316 µM) was 70.5%. It also gave a viability, T/C (second compound 0.1 µM, first compound 0.1 µM) of 42.8%, a viability, T/C (second compound 0.1 µM, first compound 0.316 µM) of 11.4% and a viability, T/C (second compound 0.1 µM, first compound 1 µM) of 5.74%. The viability, T/C (second compound 0.316 µM, first compound 0.00316 µM) was 78.8%, the viability, T/C (second compound 0.316 µM, first compound 0.01 µM) was 92.2% and the viability, T/C (second compound 0.316 µM, first compound 0.0316 µM) was 93.8%. It also gave a viability, T/C (second compound 0.316 µM, first compound 0.1 µM) of 35.9%, a viability, T/C (second compound 0.316 µM, first compound 0.316 µM) of 13.3% and a viability, T/C (second compound 0.316 µM, first compound 1 µM) of 7.18%. The viability, T/C (second compound 1 µM, first compound 0.00316 µM) was 98.1%, the viability, T/C (second compound 1 µM, first compound 0.01 µM) was 96.8% and the viability, T/C (second compound 1 µM, first compound 0.0316 µM) was 82.6%. For the same compound, the viability, T/C (second compound 1 µM, first compound 0.1 µM) was 45.6%, the viability, T/C (second compound 1 µM, first compound 0.316 µM) was 13.2% and the viability, T/C (second compound 1 µM, first compound 1 µM) was 6.57%.
